The source of these data is patent US7988972B2, “Immunoreactive peptides from Epstein-Barr virus” (Ortho-Clinical Diagnostics, Inc., priority 1993, dated 2011).

Test [1] relates to EA reactive antibody (IgG) in infectious mononucleosis (IM) sera. The test can be described thus: ELISA, EA peptides with EBV infectious mononucleosis sera. The format is binding, human. To be noted: EA positive EBV IM acute serum. Here is the method: (§1) ELISA. The ELISA for measuring specific antibodies to p17, p50 or to the synthetic peptides was performed as previously described in detail (Luka et al., J. Immunol. Methods, 67:145-156, 1984). Aliquots of different antigen concentrations were diluted in 0.5M Na2CO3 buffer, pH 9.5, added to wells in polystyrene microtiter plates (Linbro) and the plates incubated overnight at 4° C. Following this incubation period, the plates were washed 5× with Tris-HCl, pH 7.4, containing 0.05% Tween 20, 50 mM NaCl and 100 mg per liter albumin (Sigma) and dried for 20 minutes at room temperature. The plates were screened with different anti-EA-R or EA-D antibody positive human sera and the monoclonal antibody to p17 or p50 to identify the optimal concentration of antigen to be used in the serological studies. Alkaline-phosphatase-labelled goat anti-human IgG (Sigma) or goat anti-mouse IgG (Sigma) was used as the indicator system.
(§2) For the testing of human sera for antibodies to native p17, p50 or to the synthetic peptides, sera were diluted 1:10 in ELISA buffer, added in 0.1 ml volumes to wells coated with optimal concentrations of antigen and the plates were incubated for 60 minutes at room temperature. After 4 washes with ELISA buffer, 100 μl of alkaline phosphatase-labelled goat anti-human IgG in ELISA buffer were added to each well and the plates were incubated at room temperature for 1 hour. Following four more washes in buffer, the enzyme reaction was performed by dissolving 1 mg per ml of Sigma alkaline phosphatase substrate in 1M diethanolamine buffer, pH 10.4, containing 1 mM MgCl2 and 0.1 mM ZnCl2, and 100 μl of the mixture was then added to each well. The reaction was allowed to proceed for 30 minutes at 37° C. and then the plates were screened directly with a microplate reader, TITERTEK MULTISKAN MC (Flow), at 420 nm. Readings above 0.1 which was 2× the background noted with antibody-negative sera were considered positive reactions.
When the entire 50.10 peptide was tested with 1M sera, 24/32 or 75% of the sera contained EA-D reactive antibody (IgG) (Table 4).
Serological reactivity of EA peptides p17.1 and p50.1 which contained additional amino acids on their amino and carboxy termini was tested on EBV IM acute sera which was EA positive. The ELISA results shown in Table 5 indicate that the additional amino acids improved reactivity for both EA peptides.
Immunofluorescence assays (IFA) were performed as described by Henle, et al. (Int. J. Cancer, 8:272-282, 1971). Western blot analysis was done by methods commonly used in the art (See for example, Coligan, et al., Current Protocols in Immunology, Wiley Interscience, 1991, Unit 12). Samples of EBV-infected cell lysates (P3HR-1) were tested with human whole antiserum from positive humans (Pearson, et al., Virology, 160:151-161, 1987). A comparison was made between EA serology by IFA, using the EA-D 50.1 peptide antisera, and ELISA serology using 50.1 peptide (see Example 2).
Background: In an ELISA, binding on a coated surface is turned into a signal by an enzyme label.

The test system of test [2] is peripheral blood lymphocytes (PBL). The test can be described thus: Proliferation assay of peripheral blood lymphocytes (3H-thymidine incorporation). To be noted: for proliferation response: PBL from 3 anti-VCA-positive anti-EA-antibody-negative individuals; for 3H-thymidine Incorporation (cpm + S.D.) / S.I. (stimulation index): PBL from anti-VCA-positive, anti-EA-positive donor, 5 days. The class given is cell-based, human. The procedure:
Proliferation assays. T-cell proliferation assays using the native p17 or p50 polypeptide or the synthetic peptides were performed as previously described in detail (Pothen et al., Int. J. Cancer, 49:656-660, 1991). Briefly, peripheral blood lymphocytes (PBLO from sero-positive donors were isolated on FICOLL-HYPAQUE gradients, washed and resuspended in RPMI 1640 media containing 10% heat-inactivated human A^+ serum from a sero-negative donor. Cells (1×10^5 per 0.1 ml) were then added to each well in 96-well, round-bottomed tissue culture plates (Costar, Cambridge, Mass.). The different antigen preparations were added to triplicate wells in 0.1 ml volumes and the plates were incubated at 37° C. for 5 days. ^3H-thymidine (5 Ci per mM) was added at a concentration of 1 μCi per well over the last 4 hours of culture. The cells were then harvested with a multichannel sample harvester and ^3H-thymidine incorporation was determined using a Beckman Model LS 3801 liquid scintillation counter. Stimulation indices for the test antigens were calculated by dividing the average counts per minute (CPMO for the test antigens by the average CPM of the medium control wells.
PBL from asymptomatic EBV-infected individuals were tested for response to any of the three p17 synthetic peptides (Table 1) by a proliferation assay using lymphocytes previously shown to proliferate in the presence of native p17 (Pothen et al., Int. J. Cancer, 49:656-660, 1991). Different concentrations of the synthetic peptides were incubated with the PBL for 5 days and then proliferation was assayed by the incorporation of ^3H-thymidine. The native p17 purified from activated P3HR-1 cells gave a S.I. of 15.8 in this experiment. […] Neither of the other synthetic peptides induced a proliferation response at the concentrations tested.
PBL from 3 anti-VCA-positive anti-EA-antibody-negative individuals were also examined in the proliferation assay with the three synthetic peptides. Again, all 3 PBL preparations responded to the highest concentrations of p17.1 with S.I.'s ranging from 3.5-11. Two of the preparations (FIG. 2A,C) also proliferated in the presence of lower concentrations of antigen with S.I.'s of 3 and 5 respectively. […] These experiments established that T-lymphocytes from EBV-infected individuals, irrespective of the presence of antibody to EA, recognized a dominant epitope on p17.

For test [3], the system named is anti-EA antibodies in human sera. The test can be described thus: ELISA, serological reactivity of human sera with p17 synthetic peptides. To be noted: for share of anti-EA-positive sera that reacted: 87 anti-EA antibody-positive sera (titer>160), 2 μg peptide per well; for No. Positive/No. Tested / No. Positive/No. Tested (%): sera 1:10. The class given is binding. The procedure:
as §1, §2
Studies were designed to determine the serological reactivity with the p17 synthetic epitopes. For this purpose, 87 anti-EA antibody-positive sera (titer>160) were tested in the ELISA against optimal pre-determined concentrations (2 μg per well) of the p17 synthetic peptides. The sera were obtained from 28 patients with African Burkift's lymphoma (ABL) collected during the Ghanian Burkitt Tumor Project, and from 28 North American patients with intermediate large cell, or high grade non-Hodgkin's lymphoma (NANHL). The donors included both HIV-positive and HIV-negative individuals. In addition, sera from 31 North American nasopharyngeal carcinoma (NANPC) patients were examined in this study (Pearson, G. R., et al., Cancer, 51:260-268, 1983). To validate the EA specificity of the serological reactions, the results with these sera were compared with results with 23 VCA and EA antibody-negative sera and 30 VCA-antibody-positive, EA-antibody negative sera. In contrast to the T-cell proliferation results, all three synthetic peptides reacted with the EA antibody-positive sera to varying degrees with p17.1 again being the dominant epitope. Approximately 60% of the anti-EA-positive sera reacted with p17.1, 48% with p17.2 and 23% with p17.3.
Seventy-one percent of the sera from ABL patients and 93% of the sera from patients with NANHL reacted with p17.1 as opposed to 23% of the sera from North American patients with NPC.

[4] abbreviates: serum donors: Burkitt's lymphoma (African), EA titers >160.
Setting [5] is: serum donors: Lymphoma (total), EA titers >160.
The mark [6] stands for this setting: serum donors: Nasopharyngeal carcinoma (North American), EA titers >160.
Setting [7] is: serum donors: Non-Hodgkin's lymphoma (North American), EA titers >160.
The mark [8] stands for this setting: serum donors: Normal (VCA + EA-).
Setting [9] is: serum donors: Normal (VCA − EA-).

Bounds are passed on as bounds.

As for “ARQKQKHPKKVKQAFNPLI [50.1e, extension of p50.10 by the addition of several amino and carboxy-terminal amino acids]”, the “ELISA result, peptides with and without extensions” value in test [1] (sample no. 2241) is listed as >2; in test [1] (sample no. 12498), 0.946; in test [1] (sample no. 12836), 1.718.
Regarding “GMLEASEGLDGWIHQ [p17.2, synthetic peptide from 17 Kd early antigen (EA-R) region of EBV]”, in test [2], the proliferation response result was “None of these PBL preparations proliferated”. Also, the results for the “3H-thymidine Incorporation (cpm + S.D.)” value in test [2] (3.12 μg/ml), in test [2] (12.5 μg/ml) and in test [2] (50 μg/ml) were 157 ± 23 cpm, 278 ± 58 cpm and 277 ± 175 cpm, respectively. Also, the “S.I. (stimulation index)” value is 1.1 in test [2] (3.12 μg/ml) and 1.9 in test [2] (12.5 μg/ml). Further, in test [3], the “share of anti-EA-positive sera that reacted” value stood at 48%. Moreover, the “No. Positive/No. Tested” value is 13/28 in test [3] (setting [4]); 36/56 in test [3] (setting [5]); 6/31 in test [3] (setting [6]); 23/28 in test [3] (setting [7]); 0/30 in test [3] (setting [8]); 0/23 in test [3] (setting [9]). Moreover, the “No. Positive/No. Tested (%)” value in test [3] (setting [4]) is reported as 46%; in test [3] (setting [5]), 64%; in test [3] (setting [6]), 19%; in test [3] (setting [7]), 82%; in test [3] (setting [8]), 0%.
For the sequence “HQQGGWSTLIEDNIP [p17.3, synthetic peptide from 17 Kd early antigen (EA-R) region of EBV]”, in test [2], the proliferation response entry is reported as “None of these PBL preparations proliferated”. Moreover, the “3H-thymidine Incorporation (cpm + S.D.)” value is 194 ± 65 cpm in test [2] (3.12 μg/ml), 132 ± 3 cpm in test [2] (12.5 μg/ml) and 190 ± 47 cpm in test [2] (50 μg/ml). The “S.I. (stimulation index)” value in test [2] (3.12 μg/ml) is on record as 1.3; in test [2] (12.5 μg/ml) it was 0. Besides, the “share of anti-EA-positive sera that reacted” value in test [3] is listed as 23%. For the same sequence, the “No. Positive/No. Tested” value in test [3] (setting [4]) is recorded as 9/28; in test [3] (setting [5]), 16/56; in test [3] (setting [6]), 4/31; in test [3] (setting [7]), 7/28; in test [3] (setting [8]), 0/30; in test [3] (setting [9]), 0/23. Also, the “No. Positive/No. Tested (%)” value in test [3] (setting [4]) worked out at 32%; in test [3] (setting [5]), 29%; in test [3] (setting [6]), 13%; in test [3] (setting [7]), 25%; in test [3] (setting [8]) it was 0%.
Turning to “QNSETFTETWNRFITHTEHVD [17.1e, extension of p17.1 by the addition of several amino and carboxy-terminal amino acids]”, the “ELISA result, peptides with and without extensions” value amounted to 1.277 in test [1] (sample no. 2241), 0.502 in test [1] (sample no. 12498) and 1.257 in test [1] (sample no. 12836).
